Data taken from patent publication US11000495B2, “Topical diclofenac sodium compositions” (Novartis Consumer Health S.A., priority 2014, dated 2021).
Counter-ions that a name gives are not always drawn.

Legend:
[1] = cited from earlier work
[2] = Solubility of diclofenac sodium 2 wt % in IPA/PG/water solvent mixtures by UV absorbance; type: physicochemical; details: 2% diclofenac sodium in IPA/PG/water, 25° C., systems shown as circles in FIG. 1
Procedure: FIG. 1 is a ternary diagram of the solubility of diclofenac sodium, 2 wt %, at 25° C., as determined by UV absorbance, in solvent mixtures comprising isopropyl alcohol (bottom axis), propylene glycol (left axis), and water (right axis) in varying amounts. The data points represent solvent mixtures which are found to be at or above (circles), or below (squares), the target (i.e. 2%) solubility. FIG. 1 illustrates solubility studies of such solvent systems comprising 2% diclofenac sodium in isopropyl alcohol (IPA), propylene glycol (PG) and water. […] (Incomplete solubilization is represented by squares.)

Row | solubility of the salt in solvent systems [2] | SMILES | water solubility ([1]; acid form, Fini et al.) | kinetic solubility ([1]; anhydrous form, Llinas et al.) [µg/mL]
1 |  | O=C(O)Cc1ccccc1Nc1c(Cl)cccc1Cl [Acidic diclofenac, diclofenac] | very low | 
2 | Complete solubility | O=C(O)Cc1ccccc1Nc1c(Cl)cccc1Cl [diclofenac sodium, 2-[(2,6-dichloro-phenyl)amino]benzeneacetic acid, (mono) sodium salt] |  | 40 ± 5
